Reference: patent EP4227307A1 (Genzyme Corporation, priority 2022, dated 2023)
Counter-ions that a name gives are not always drawn.

Biological target: T1, human recombinant 6His-Nterm SHP2 full-length (Thr2-Arg593) (Homo sapiens, UniProt Q06124)
T1 construct: 6His-Nterm SHP2 full-length (Thr2-Arg593, R&D system); 6His (N); purchased R&D system
T1 sequence (Q06124 2-593): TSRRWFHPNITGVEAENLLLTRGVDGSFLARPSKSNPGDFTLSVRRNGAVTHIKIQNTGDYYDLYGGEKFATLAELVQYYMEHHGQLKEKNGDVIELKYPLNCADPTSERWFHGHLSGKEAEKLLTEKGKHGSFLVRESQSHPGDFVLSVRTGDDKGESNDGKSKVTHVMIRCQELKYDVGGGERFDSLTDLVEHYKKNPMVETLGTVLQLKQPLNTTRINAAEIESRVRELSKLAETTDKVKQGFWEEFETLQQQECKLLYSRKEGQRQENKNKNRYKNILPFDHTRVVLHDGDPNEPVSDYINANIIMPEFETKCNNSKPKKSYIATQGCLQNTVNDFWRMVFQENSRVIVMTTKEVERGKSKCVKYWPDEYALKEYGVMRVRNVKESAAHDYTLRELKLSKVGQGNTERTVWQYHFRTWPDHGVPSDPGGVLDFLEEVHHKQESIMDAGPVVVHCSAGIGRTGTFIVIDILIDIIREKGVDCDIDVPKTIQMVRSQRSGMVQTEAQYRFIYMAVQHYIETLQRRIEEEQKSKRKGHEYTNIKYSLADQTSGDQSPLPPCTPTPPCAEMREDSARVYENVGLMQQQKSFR
Assay: SHP2 Phosphatase Assay (DiFMUP fluorescence)
Type: biochemical
Conditions: SHP2 0.2 nM pre-incubated with 100 nM bi-phosphorylated activating peptide; compound 1000-0.05 nM, 30 min pre-incubation; DiFMUP 20 µM, 45 min, room temperature; 10-concentration dose-response
How it was run: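 SHP2 (0.2 nM) preactivated ≥10 min with 100 nM bis-phosphorylated peptide, then 30 min with compound (10 concentrations, 1000–0.05 nM) at room temperature, pH 7.2 HEPES buffer with DTT. DiFMUP (20 µM, added solution) reacted 45 min, pervanadate-stopped; fluorescence 350/450 nm. IC50 by 4-parameter logistic fit.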

Compound	IC50
Cc1nc(N2CCC3(CC2)Cc2scnc2[C@H]3N)c2ccnn2c1-c1ccccc1 [Compound 68, (4S)-1'-(6-methyl-7-phenyl-pyrazolo[1,5-a]pyrazin-4-yl)spiro[4,6-dihydrocyclopenta[d]thiazole-5,4'-piperidine]-4-amine hydrochloride]	18 nM
Cc1nccc(-c2c(C)nc(N3CCC4(CC3)Cc3scnc3[C@H]4N)c3ccnn23)c1Cl [Compound 69, (4S)-1'-[7-(3-chloro-2-methyl-4-pyridyl)-6-methyl-pyrazolo[1,5-a]pyrazin-4-yl]spiro[4,6-dihydrocyclopenta[d]thiazole-5,4'-piperidine]-4-amine hydrochloride]	10 nM
Cc1nc(N2CCC3(CC2)Cc2ncccc2[C@H]3N)c2ccnn2c1-c1ccncc1 [Compound 70, (5S)-1'-[6-methyl-7-(4-pyridyl)pyrazolo[1,5-a]pyrazin-4-yl]spiro[5,7-dihydrocyclopenta[b]pyridine-6,4'-piperidine]-5-amine hydrochloride]	73 nM
Cc1nc(N2CCC3(CC2)Cc2ncccc2[C@H]3N)c2ccnn2c1-c1ccncc1F [Compound 71, (5S)-1'-[7-(3-fluoro-4-pyridyl)-6-methyl-pyrazolo[1,5-a]pyrazin-4-yl]spiro[5,7-dihydrocyclopenta[b]pyridine-6,4'-piperidine]-5-amine hydrochloride]	30 nM
Cc1nccc(-c2c(C)nc(N3CCC4(CC3)Cc3ncsc3[C@H]4N)c3ccnn23)c1Cl [Compound 73, (6S)-1'-[7-(3-chloro-2-methyl-4-pyridyl)-6-methyl-pyrazolo[1,5-a]pyrazin-4-yl]spiro[4,6-dihydrocyclopenta[d]thiazole-5,4'-piperidine]-6-amine hydrochloride]	5 nM
Cc1nc(N2CCC3(CC2)Cc2ncsc2[C@H]3N)c2ccnn2c1-c1ccccc1 [Compound 74, (6S)-1'-(6-methyl-7-phenyl-pyrazolo [1,5-a]pyrazin-4-yl)spiro[4,6-dihydrocyclopenta[d]thiazole-5,4'-piperidine] -6-amine hydrochloride]	5 nM
Cc1nc(N2CCC3(CC2)Cc2ncsc2[C@H]3N)c2ccnn2c1-c1ccccc1F [Compound 75, (6S)-1'-[7-(2-fluorophenyl)-6-methyl-pyrazolo[1,5-a]pyrazin-4-yl]spiro[4,6-dihydrocyclopenta[d]thiazole-5,4'-piperidine]-6-amine hydrochloride]	7 nM
COc1cc(-c2c(C)nc(N3CCC4(CC3)Cc3ncccc3[C@H]4N)c3ccnn23)c(F)cn1 [Compound 76, (5S)-1'-[7-(5-fluoro-2-methoxy-4-pyridyl)-6-methyl-pyrazolo [1,5-a]pyrazin-4-yl]spiro[5,7-dihydrocyclopenta[b]pyridine-6,4'-piperidine] -5-amine hydrochloride]	72 nM
Cc1nc(N2CCC3(CC2)Cc2ncccc2[C@H]3N)c2ccnn2c1-c1ccc2nccnc2c1Cl [Compound 77, (5S)-1'-[7-(5-chloroquinoxalin-6-yl)-6-methyl-pyrazolo[1,5-a]pyrazin-4-yl]spiro[5,7-dihydrocyclopenta[b]pyridine-6,4'-piperidine]-5-amine]	4 nM
Cc1nc(N2CCC3(CC2)Cc2ncccc2[C@H]3N)c2ccnn2c1-c1ccc2nccnc2c1F [Compound 78, (5S)-1'-[7-(5-fluoroquinoxalin-6-yl)-6-methyl-pyrazolo[1,5-a]pyrazin-4-yl]spiro [5,7-dihydrocyclopenta[b]pyridine-6,4'-piperidine] -5-amine hydrochloride]	12 nM
Cc1nc(N2CCC3(CC2)Cc2ncc(F)cc2[C@H]3N)c2ccnn2c1-c1ccc2nccnc2c1Cl [Compound 79, (5S)-1'-[7-(5-chloroquinoxalin-6-yl)-6-methyl-pyrazolo[1,5-a]pyrazin-4-yl]-3-fluoro-spiro[5,7-dihydrocyclopenta[b]pyridine-6,4'-piperidine]-5-amine hydrochloride]	10 nM
Cc1nc(N2CCC3(CC2)Cc2cc(F)c(F)cc2[C@H]3N)c2ccnn2c1-c1cnn(C)c1C [Compound 80, (1S)-1'-[7-(1,5-dimethylpyrazol-4-yl)-6-methyl-pyrazolo[1,5-a]pyrazin-4-yl]-5,6-difluoro-spiro [indane-2,4'-piperidine]-1-amine hydrochloride]	17 nM
Cc1nc2c(s1)[C@@H](N)C1(CCN(c3nc(C)c(-c4ccc5nccnc5c4Cl)n4nccc34)CC1)C2 [Compound 81, (6S)-1'-[7-(5-chloroquinoxalin-6-yl)-6-methyl-pyrazolo[1,5-a]pyrazin-4-yl]-2-methyl-spiro [4,6-dihydrocyclopenta[d]thiazole-5,4'-piperidine]-6-amine hydrochloride]	4 nM
Cc1nc2c(s1)[C@@H](N)C1(CCN(c3nc(C)c(-c4cnn(C)c4C)n4nccc34)CC1)C2 [Compound 82, (6S)-1'-[7-(1,5-dimethylpyrazol-4-yl)-6-methyl-pyrazolo[1,5-a]pyrazin-4-yl]-2-methyl-spiro[4,6-dihydrocyclopenta[d]thiazole-5,4'-piperidine] -6-amine hydrochloride]	27 nM
Cc1nc2c(s1)[C@@H](N)C1(CCN(c3nc(C)c(-c4ccccc4F)n4nccc34)CC1)C2 [Compound 83, (6S)-1'-[7-(2-fluorophenyl)-6-methyl-pyrazolo[1,5-a]pyrazin-4-yl]-2-methyl-spiro[4,6-dihydrocyclopenta[d]thiazole-5,4'-piperidine]-6-amine hydrochloride]	10 nM
Cc1nc2c(s1)[C@@H](N)C1(CCN(c3nc(C)c(-c4ccnc(C)c4Cl)n4nccc34)CC1)C2 [Compound 84, (6S)-1'-[7-(3-chloro-2-methyl-4-pyridyl)-6-methyl-pyrazolo[1,5-a]pyrazin-4-yl]-2-methyl-spiro[4,6-dihydrocyclopenta[d]thiazole-5,4'-piperidine]-6-amine hydrochloride]	5 nM
COc1cccc(-c2cnc(N3CCC4(CC3)Cc3ncccc3[C@H]4N)c3ccnn23)c1F [Compound 85, (5S)-1'-[7-(2-fluoro-3-methoxyphenyl)pyrazolo[1,5-a]pyrazin-4-yl]spiro[5,7-dihydrocyclopenta[b]pyridine-6,4'-piperidine] -5-amine hydrochloride]	27 nM
Cc1nccc(-c2cnc(N3CCC4(CC3)Cc3ncccc3[C@H]4N)c3ccnn23)c1Cl [Compound 86, (5S)-1'-[7-(3-chloro-2-methyl-4-pyridyl)pyrazolo[1,5-a]pyrazin-4-yl]spiro[5,7-dihydrocyclopenta[b]pyridine-6,4'-piperidine]-5-amine hydrochloride]	60 nM
N[C@@H]1c2cccnc2CC12CCN(c1ncc(-c3cccc(F)c3Cl)n3nccc13)CC2 [Compound 87, (5 S)-1'-[7-(2-chloro-3-fluorophenyl)pyrazolo[1,5-a]pyrazin-4-yl]spiro [5,7-dihydrocyclopenta[b]pyridine-6,4'-piperidine] -5-amine hydrochloride]	22 nM
Cc1c(-c2cnc(N3CCC4(CC3)Cc3ncccc3[C@H]4N)c3ccnn23)cnn1C [Compound 88, (5S)-1'-[7-(1,5-dimethylpyrazol-4-yl)pyrazolo [1,5-a]pyrazin-4-yl]spiro[5,7-dihydrocyclopenta[b]pyridine-6,4'-piperidine] -5-amine hydrochloride]	346 nM
N[C@@H]1c2cccnc2CC12CCN(c1ncc(-c3ccc(F)c4cc[nH]c34)n3nccc13)CC2 [Compound 89, (5S)-1'-[7-(4-fluoro-1H-indol-7-yl)pyrazolo[1,5-a]pyrazin-4-yl]spiro[5,7-dihydrocyclopenta[b]pyridine-6,4'-piperidine] -5-amine hydrochloride]	9 nM
N[C@@H]1c2cccnc2CC12CCN(c1ncc(-c3cnn4ccccc34)n3nccc13)CC2 [Compound 90, (5S)-1'-(7-pyrazolo[1,5-a]pyridin-3-ylpyrazolo[1,5-a]pyrazin-4-yl)spiro [5,7-dihydrocyclopenta[b]pyridine-6,4'-piperidine] -5-amine hydrochloride]	13 nM
Cc1nccc(-c2c(C)nc(N3CCC4(CC3)Cc3ccc(F)cc3[C@H]4N)c3ccnn23)c1Cl [Compound 91, (1S)-1'-[7-(3-chloro-2-methyl-4-pyridyl)-6-methyl-pyrazolo[1,5-a]pyrazin-4-yl]-6-fluoro-spiro[indane-2,4'-piperidine]-1-amine hydrochloride]	19 nM
Cc1nccc(-c2c(C)nc(N3CCC4(CC3)Cc3c(F)cccc3[C@H]4N)c3ccnn23)c1Cl [Compound 92, (1S)-1'-[7-(3-chloro-2-methyl-4-pyridyl)-6-methyl-pyrazolo[1,5-a]pyrazin-4-yl]-4-fluoro-spiro[indane-2,4'-piperidine]-1-amine formate]	8 nM
Cc1nc(N2CCC3(CC2)Cc2c(F)cccc2[C@H]3N)c2ccnn2c1-c1ccccc1F [Compound 93, (1S)-4-fluoro-1'-[7-(2-fluorophenyl)-6-methyl-pyrazolo[1,5-a]pyrazin-4-yl]spiro[indane-2,4'-piperidine]-1-amine hydrochloride]	46 nM
